Results taken from ChEMBL document CHEMBL1201862, “PubChem BioAssay data set” (2004).
The source made the active and inactive calls.

Experiments:
Caspase-6 = target: T1, Caspase-6 (Homo sapiens, UniProt P55212); assay: human caspase-6 inhibitors, dose response, biochemical, VEID-R110 fluorescence, cherry-pick (AID 720632)
T1 sequence (P55212 whole entry): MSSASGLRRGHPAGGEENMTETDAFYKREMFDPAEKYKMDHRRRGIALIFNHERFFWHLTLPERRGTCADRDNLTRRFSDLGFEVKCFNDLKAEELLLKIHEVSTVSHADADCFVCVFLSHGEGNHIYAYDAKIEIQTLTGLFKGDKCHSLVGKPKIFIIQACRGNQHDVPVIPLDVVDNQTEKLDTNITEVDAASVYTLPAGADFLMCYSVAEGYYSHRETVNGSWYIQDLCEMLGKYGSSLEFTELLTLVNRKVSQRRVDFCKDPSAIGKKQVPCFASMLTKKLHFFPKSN

[1] = target: Voltage-dependent T-type calcium channel subunit alpha-1H (Homo sapiens, UniProt O95180); format: functional;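 also: channel activity triggered by adding a high calcium stimulation buffer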
[2] = inhibitors of SNCA 5'UTR-driven reporter translation, confirmation, H4 neuroglioma cells, luminescence (AID 1988); format: functional, cell-based
Cytochrome P450 2D6 = Cytochrome P450 2D6 (Homo sapiens, UniProt P10635); assay: qHTS Assay for Inhibitors and Substrates of Cytochrome P450 2D6. [Related pubchem assays: 410 ]; format: ADME; settings: read-out: Potency
[3] = inhibitors of firefly luciferase expression or activity, dose response, H4 neuroglioma cells, luminescence (AID 1990); format: functional, cell-based
[4] = Luminescence Cell-Based Dose Response HTS to Identify Inhibitors of 5'UTR Stem-Loop Driven Prion Protein mRNA Translation in H4 Neuroglioblastoma Cells. [Related pubchem assays: 1827 (Project Summary), 1813 (Primary HTS)]; format: functional
[5] = HEp-2 cell cytotoxicity, dose response, cytotoxicity control for RSV inhibitor project, HTS (AID 2410); format: functional; settings: human respiratory syncytial virus
[6] = HEK293T cytotoxicity, dose response, cytotoxicity control for miR-122 modulator project, cell-based, inhibitor set, cherry-pick, set 2 (AID 720697); format: functional
Large T antigen = Large T antigen (Simian virus 40, UniProt P03070); format: functional, Betapolyomavirus macacae;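 also: Confirmatory-stage PubChem screen for compounds that inhibit SV40 T antigen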
[7] = Luminescence Cell-Based Dose Confirmation HTS to Identify Inhibitors of Platelet Dense Granule Release. [Related pubchem assays: 1663 (Primary HTS), 1678 (Summary of Project)]; format: functional
[8] = target: Luciferin 4-monooxygenase (Photinus pyralis, UniProt P08659); assay: firefly luciferase enzyme inhibitors, dose response, biochemical, luminescence (AID 1891)
[9] = target: T2, Alkaline phosphatase, tissue-nonspecific isozyme (Homo sapiens, UniProt P05186); assay: human TNAP enzyme inhibitors, SAR follow-up, biochemical, luminescent, dose response (AID 1056)
T2 sequence (P05186 whole entry): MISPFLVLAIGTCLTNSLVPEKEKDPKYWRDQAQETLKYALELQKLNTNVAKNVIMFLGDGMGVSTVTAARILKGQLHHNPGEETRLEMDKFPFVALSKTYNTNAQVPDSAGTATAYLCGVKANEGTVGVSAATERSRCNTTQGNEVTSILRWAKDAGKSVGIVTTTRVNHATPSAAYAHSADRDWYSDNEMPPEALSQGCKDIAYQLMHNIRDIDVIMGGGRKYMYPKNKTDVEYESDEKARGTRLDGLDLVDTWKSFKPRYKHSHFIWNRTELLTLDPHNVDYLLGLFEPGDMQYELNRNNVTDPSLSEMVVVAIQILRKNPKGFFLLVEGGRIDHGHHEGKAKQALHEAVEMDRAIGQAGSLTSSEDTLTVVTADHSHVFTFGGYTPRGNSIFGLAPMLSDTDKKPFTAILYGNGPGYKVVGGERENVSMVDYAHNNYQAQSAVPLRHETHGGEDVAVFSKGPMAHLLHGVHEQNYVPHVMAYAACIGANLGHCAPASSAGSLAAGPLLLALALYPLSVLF

[10] = target: Glyceraldehyde-3-phosphate dehydrogenase (Homo sapiens, UniProt P04406)
Protein skinhead-1 = target: T3, Protein skinhead-1 (Caenorhabditis elegans, UniProt P34707); format: functional
T3 sequence (P34707 whole entry): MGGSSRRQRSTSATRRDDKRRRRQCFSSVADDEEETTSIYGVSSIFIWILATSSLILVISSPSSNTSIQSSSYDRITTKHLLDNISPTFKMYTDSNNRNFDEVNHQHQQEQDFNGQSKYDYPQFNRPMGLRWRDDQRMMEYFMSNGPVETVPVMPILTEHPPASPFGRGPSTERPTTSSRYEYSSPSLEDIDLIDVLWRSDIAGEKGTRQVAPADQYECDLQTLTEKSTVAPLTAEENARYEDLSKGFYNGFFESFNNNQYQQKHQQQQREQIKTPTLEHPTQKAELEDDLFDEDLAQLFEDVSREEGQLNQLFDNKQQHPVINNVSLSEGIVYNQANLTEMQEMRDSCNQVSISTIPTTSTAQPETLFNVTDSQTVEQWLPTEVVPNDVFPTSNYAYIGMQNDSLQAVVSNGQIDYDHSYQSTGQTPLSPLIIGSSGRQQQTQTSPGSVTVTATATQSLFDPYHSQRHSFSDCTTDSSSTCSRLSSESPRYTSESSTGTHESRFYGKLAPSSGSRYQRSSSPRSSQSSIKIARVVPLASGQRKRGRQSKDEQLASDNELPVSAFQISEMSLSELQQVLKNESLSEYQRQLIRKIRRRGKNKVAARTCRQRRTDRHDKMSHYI

Aminopeptidase N = target: T4, Aminopeptidase N (Plasmodium falciparum FcB1/Columbia, UniProt O96935); assay: P. falciparum M1AAP inhibitors, biochemical, fluorogenic H-Leu-NHMec substrate, 1536-well (AID 1445); set-up: species or system Plasmodium falciparum 3D7, 3D7
T4 sequence (O96935 whole entry): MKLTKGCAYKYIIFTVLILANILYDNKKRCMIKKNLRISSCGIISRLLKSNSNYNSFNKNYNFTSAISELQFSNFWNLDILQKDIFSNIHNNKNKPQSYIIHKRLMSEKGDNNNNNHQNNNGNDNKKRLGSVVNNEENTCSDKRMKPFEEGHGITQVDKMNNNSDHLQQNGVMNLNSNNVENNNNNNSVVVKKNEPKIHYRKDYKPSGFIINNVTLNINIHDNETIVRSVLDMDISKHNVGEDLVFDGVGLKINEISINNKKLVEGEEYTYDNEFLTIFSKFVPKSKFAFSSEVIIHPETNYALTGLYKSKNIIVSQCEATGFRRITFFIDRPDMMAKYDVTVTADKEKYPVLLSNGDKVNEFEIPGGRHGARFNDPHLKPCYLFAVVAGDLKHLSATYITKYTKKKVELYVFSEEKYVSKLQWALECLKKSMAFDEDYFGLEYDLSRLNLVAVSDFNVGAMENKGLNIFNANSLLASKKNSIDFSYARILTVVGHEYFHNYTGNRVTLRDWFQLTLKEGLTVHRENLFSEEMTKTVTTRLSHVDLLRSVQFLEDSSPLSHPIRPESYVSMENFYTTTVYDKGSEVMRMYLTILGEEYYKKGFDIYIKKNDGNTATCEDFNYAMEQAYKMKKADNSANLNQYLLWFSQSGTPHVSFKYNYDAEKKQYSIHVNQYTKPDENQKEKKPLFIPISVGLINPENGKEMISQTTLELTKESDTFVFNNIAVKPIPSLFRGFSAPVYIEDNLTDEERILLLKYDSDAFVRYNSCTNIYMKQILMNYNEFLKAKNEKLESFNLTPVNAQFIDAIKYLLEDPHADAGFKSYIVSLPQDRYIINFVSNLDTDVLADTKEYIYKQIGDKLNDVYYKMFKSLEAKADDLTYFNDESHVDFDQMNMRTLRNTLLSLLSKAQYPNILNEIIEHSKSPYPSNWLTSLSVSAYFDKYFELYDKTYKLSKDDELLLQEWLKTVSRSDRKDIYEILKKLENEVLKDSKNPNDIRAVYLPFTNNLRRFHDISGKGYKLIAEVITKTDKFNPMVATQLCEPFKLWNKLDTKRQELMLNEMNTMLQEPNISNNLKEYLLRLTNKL

Leucine aminopeptidase = target: T5, Leucine aminopeptidase (Plasmodium falciparum 3D7, UniProt Q8IL11); assay: P. falciparum M17LAP inhibitors, primary screen, biochemical, fluorogenic H-Leu-NHMec substrate, 1536-well (AID 1619); format: functional
T5 sequence (Q8IL11 whole entry): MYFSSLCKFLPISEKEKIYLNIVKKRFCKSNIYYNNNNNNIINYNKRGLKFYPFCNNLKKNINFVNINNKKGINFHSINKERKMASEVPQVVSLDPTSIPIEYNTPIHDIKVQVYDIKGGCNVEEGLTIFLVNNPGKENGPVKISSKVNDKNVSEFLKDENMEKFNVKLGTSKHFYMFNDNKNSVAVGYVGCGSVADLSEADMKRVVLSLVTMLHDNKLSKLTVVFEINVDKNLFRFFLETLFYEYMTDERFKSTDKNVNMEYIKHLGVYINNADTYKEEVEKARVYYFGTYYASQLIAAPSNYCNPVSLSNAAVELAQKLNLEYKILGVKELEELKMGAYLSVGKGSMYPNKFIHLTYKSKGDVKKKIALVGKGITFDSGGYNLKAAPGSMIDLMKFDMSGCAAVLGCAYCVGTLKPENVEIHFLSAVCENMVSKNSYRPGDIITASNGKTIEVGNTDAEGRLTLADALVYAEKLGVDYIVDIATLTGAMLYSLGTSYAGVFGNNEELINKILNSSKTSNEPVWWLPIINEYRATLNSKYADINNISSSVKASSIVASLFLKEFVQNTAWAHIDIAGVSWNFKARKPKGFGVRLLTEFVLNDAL

[11] = target: FAD-linked sulfhydryl oxidase ALR (Homo sapiens, UniProt P55789); assay: inhibitors of human ALR sulfhydryl oxidase, dose response, biochemical, H2O2 detection, luminescence, cherry-pick (AID 493248)
Cytochrome P450 3A4 = Cytochrome P450 3A4 (Homo sapiens, UniProt P08684); settings: Potency;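 also: confirmatory qHTS run detecting inhibitors and substrates of CYP3A4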
Sequence of Cytochrome P450 3A4 (P08684 whole entry): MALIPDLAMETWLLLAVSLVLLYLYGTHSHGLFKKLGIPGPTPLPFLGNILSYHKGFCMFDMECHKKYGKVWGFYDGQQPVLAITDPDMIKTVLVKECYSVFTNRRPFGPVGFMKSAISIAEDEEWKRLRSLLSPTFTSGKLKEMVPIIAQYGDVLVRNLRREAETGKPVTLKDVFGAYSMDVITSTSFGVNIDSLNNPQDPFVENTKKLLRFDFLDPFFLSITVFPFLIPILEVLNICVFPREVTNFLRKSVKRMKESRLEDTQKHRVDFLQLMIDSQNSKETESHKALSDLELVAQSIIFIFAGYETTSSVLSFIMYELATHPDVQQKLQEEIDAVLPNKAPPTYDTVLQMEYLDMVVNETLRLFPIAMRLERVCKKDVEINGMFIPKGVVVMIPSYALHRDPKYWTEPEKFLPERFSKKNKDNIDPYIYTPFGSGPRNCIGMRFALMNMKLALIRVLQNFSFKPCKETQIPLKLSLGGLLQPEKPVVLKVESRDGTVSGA

Sequence of Cytochrome P450 2D6 (P10635 whole entry): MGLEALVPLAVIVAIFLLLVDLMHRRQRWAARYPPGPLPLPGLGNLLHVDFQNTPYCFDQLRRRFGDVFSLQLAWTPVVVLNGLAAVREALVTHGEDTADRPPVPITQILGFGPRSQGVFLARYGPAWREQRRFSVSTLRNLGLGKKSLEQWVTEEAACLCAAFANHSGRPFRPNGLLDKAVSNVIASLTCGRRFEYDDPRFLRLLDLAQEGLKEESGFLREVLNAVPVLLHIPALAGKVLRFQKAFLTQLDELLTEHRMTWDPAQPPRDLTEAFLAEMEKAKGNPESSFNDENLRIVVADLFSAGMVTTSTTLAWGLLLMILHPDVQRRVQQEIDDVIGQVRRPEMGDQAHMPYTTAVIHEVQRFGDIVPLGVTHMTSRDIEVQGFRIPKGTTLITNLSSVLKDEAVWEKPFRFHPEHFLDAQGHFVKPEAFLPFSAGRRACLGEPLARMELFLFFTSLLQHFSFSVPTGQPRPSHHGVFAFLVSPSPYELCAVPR
Sequence of Glyceraldehyde-3-phosphate dehydrogenase (P04406 whole entry): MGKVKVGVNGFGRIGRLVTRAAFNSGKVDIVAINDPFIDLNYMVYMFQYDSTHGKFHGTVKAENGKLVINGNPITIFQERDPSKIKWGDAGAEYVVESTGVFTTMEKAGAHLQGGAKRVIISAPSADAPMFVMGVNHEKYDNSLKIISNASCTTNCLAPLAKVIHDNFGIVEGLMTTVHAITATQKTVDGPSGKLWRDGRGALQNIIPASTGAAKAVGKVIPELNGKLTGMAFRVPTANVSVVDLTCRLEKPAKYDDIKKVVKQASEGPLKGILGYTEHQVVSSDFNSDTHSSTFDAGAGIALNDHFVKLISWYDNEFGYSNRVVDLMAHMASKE
Sequence of Voltage-dependent T-type calcium channel subunit alpha-1H (O95180 whole entry): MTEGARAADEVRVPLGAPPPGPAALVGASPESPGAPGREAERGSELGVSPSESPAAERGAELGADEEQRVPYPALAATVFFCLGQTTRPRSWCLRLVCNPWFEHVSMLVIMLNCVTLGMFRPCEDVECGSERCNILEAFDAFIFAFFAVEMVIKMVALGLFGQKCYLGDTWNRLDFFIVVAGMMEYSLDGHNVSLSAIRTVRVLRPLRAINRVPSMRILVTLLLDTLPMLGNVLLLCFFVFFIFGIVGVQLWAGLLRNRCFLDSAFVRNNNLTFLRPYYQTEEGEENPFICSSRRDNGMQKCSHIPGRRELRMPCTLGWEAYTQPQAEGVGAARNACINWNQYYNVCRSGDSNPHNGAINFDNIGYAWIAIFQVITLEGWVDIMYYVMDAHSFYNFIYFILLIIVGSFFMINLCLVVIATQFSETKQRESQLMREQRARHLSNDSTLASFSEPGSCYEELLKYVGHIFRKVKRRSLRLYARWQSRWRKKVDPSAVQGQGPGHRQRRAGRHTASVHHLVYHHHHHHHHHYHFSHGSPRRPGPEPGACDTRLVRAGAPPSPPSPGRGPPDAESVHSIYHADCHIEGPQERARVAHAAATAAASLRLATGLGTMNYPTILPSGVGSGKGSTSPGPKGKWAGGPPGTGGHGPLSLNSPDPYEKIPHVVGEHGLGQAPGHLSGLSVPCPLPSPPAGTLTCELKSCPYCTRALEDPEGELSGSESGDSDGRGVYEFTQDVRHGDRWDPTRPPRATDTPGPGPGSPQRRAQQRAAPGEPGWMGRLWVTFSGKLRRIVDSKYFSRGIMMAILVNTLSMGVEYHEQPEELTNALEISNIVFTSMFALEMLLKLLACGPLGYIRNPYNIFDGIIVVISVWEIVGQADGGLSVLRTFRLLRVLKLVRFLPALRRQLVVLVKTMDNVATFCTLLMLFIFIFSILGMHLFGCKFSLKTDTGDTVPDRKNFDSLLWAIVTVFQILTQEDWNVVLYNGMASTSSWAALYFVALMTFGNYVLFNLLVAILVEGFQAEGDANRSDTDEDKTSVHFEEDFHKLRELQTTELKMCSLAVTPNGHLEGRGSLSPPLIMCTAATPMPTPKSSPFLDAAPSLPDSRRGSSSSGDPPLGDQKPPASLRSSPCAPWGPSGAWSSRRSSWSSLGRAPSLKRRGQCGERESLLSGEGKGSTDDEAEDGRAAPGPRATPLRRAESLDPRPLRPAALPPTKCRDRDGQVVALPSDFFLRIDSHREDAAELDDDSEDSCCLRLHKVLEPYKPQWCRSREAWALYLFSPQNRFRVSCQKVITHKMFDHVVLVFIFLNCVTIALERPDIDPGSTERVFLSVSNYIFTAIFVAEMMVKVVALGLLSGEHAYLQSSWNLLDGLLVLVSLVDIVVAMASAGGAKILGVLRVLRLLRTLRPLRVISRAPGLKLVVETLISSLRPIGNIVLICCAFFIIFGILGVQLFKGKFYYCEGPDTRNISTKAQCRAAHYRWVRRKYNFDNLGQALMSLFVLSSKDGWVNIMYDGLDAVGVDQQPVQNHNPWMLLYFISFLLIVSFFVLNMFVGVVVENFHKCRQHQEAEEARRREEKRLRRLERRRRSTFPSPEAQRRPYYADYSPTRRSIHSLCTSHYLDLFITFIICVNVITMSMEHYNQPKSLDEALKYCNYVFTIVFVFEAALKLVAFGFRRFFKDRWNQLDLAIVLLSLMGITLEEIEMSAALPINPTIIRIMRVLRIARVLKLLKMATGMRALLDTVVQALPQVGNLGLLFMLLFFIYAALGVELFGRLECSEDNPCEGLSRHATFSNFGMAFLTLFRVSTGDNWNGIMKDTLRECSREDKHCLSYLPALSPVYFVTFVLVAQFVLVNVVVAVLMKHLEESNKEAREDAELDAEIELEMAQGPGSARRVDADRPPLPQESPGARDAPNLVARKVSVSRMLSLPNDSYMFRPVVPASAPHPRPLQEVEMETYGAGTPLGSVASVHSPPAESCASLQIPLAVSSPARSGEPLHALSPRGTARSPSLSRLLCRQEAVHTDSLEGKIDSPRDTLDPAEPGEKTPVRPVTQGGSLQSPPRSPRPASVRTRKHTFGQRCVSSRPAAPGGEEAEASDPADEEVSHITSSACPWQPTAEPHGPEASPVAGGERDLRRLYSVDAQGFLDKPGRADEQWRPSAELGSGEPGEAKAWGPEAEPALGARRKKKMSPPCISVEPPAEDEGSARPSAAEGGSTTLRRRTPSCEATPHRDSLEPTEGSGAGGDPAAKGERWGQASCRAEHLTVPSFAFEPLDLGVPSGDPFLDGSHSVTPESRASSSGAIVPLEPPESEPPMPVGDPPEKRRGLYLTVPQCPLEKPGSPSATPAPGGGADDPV
Sequence of Luciferin 4-monooxygenase (P08659 whole entry): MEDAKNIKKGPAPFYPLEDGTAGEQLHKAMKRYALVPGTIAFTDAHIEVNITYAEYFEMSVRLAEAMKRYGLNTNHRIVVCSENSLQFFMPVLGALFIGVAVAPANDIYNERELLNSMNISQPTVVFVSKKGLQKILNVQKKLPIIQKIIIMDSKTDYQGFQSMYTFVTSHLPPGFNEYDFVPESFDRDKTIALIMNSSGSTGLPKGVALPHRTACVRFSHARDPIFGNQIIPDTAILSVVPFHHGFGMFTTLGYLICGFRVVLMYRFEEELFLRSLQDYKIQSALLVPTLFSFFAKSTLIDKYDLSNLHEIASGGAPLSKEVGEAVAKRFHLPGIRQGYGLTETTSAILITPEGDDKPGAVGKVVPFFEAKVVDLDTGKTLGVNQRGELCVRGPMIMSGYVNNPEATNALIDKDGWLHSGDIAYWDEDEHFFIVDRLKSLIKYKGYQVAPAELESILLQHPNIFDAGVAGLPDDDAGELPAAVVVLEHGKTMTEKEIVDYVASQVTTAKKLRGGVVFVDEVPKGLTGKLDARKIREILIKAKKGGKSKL
Sequence of FAD-linked sulfhydryl oxidase ALR (P55789 whole entry): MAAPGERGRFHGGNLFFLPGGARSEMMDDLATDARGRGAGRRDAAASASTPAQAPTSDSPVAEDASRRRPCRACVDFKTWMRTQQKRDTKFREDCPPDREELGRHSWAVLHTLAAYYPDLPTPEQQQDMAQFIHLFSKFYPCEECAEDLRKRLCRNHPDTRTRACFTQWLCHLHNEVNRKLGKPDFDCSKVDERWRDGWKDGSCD

In the case of O=C(O)CCN1CC2([N+](=O)[O-])C=CC(=O)C([N+](=O)[O-])(C1)C2CC(=O)c1ccccc1 (stereo unspecified), the AC50 (Caspase-6) is reported as 15.7 µM (active).
In the case of O=C(Nc1ccccc1Cl)c1cc(S(=O)(=O)N2CCCCC2)ccc1N1CCOCC1, the EC50 [1] is reported as 5.14 µM (active).
In the case of Cc1c(O)c(=O)ccn1Cc1ccccc1, the EC50 [2] is reported as > 120 µM (not active), the AC50 (Cytochrome P450 2D6) is reported as 3.16 µM (inconclusive) and the EC50 [3] is reported as 11.3 µM (active). For the same compound, the EC50 [4] was 3.71 µM (active).
For CCn1cc(C(=O)NCc2cccc(F)c2)c(=O)c2cc(F)c(N3CCN(C(=O)c4ccco4)CC3)cc21, the CC50 [5] was > 50 µM (active) and the IC50 (cells) was 48.9 µM (active).
In the case of COC(=O)c1cc(NS(=O)(=O)c2ccc3c(c2)CCC(=O)N3)cc(C(=O)OC)c1, the AC50 [6] is reported as 3.3 µM (active).
For COc1cc(OC)c(NC(=O)CS(=O)(=O)Cc2nc(-c3ccc(C)cc3)oc2C)cc1Cl, the EC50 [1] was 5.56 µM (active).
For O=c1cc(-c2ccc(O)c(O)c2)oc2c(C3O[C@H](CO)[C@@H](O)[C@H](O)[C@H]3O)c(O)cc(O)c12 (stereo partly specified), the IC50 (cells) was 18 µM (active) and the IC50 (Large T antigen) was 3.15 µM (active).
In the case of CCn1c(C(=O)N2CCC(C(=O)NCCCSC3CCCCC3)CC2)cc2sccc21, the EC50 [7] is reported as > 112 µM (not active), the EC50 [8] is reported as 25 µM (active) and the EC50 [1] is reported as 3.51 µM (active).
With COc1ccc(OC)c(CNC(=O)c2coc(=O)c3ccccc23)c1 the EC50 [7] was 19.5 µM (active), the CC50 [5] was 37.8 µM (active) and the IC50 (cells) was 29.3 µM (active). The EC50 [8] was > 112 µM (not active).
For CCOC(=O)c1cc(-c2ccc(Cl)cc2)n[nH]1, the IC50 [9] was 2.35 µM (active) and the IC50 [10] was > 100 µM (not active).
With COc1ccccc1C(=O)Nc1ccc2ccccc2c1 the IC50 [9] was > 10 µM (inactive), the IC50 (Protein skinhead-1) was 42.7 µM (active) and the IC50 [10] was > 10 µM (inconclusive).
For Cc1cc(C)cc(-n2nnc(C(=O)NCc3ccc4c(c3)OCO4)c2N)c1, the EC50 [1] was 2.39 µM (active).
With Cc1ccc(-c2cc(C(=O)O)[nH]n2)c(C)c1 the IC50 [9] was 3.34 µM (active) and the IC50 [10] was > 100 µM (not active).
In the case of CCOC(=O)CC1C(=O)NCCN1c1nc2ccc(C)cn2c(=O)c1/C=C1\SC(=S)N(C(C)CC)C1=O (stereo unspecified), the IC50 (Aminopeptidase N) is reported as 49.8 µM (active) and the CC50 [5] is reported as 13.3 µM (active).
With CCOc1cc(/C=C(/C#N)c2nc3ccccc3[nH]2)ccc1OCc1ccc(C(=O)O)o1 the IC50 (Aminopeptidase N) was 60.8 µM (active) and the IC50 (Leucine aminopeptidase) was 9.14 µM (active).
With OCC1(CCOc2ccccc2)CCN(Cc2cccn2-c2ncccn2)CC1 the CC50 [5] was > 50 µM (active) and the IC50 (cells) was 17.9 µM (active).
For O=S(=O)(Nc1ccc2ncccc2c1)c1cc(Cl)ccc1Cl, the IC50 [9] was > 100 µM (inactive) and the IC50 [10] was > 100 µM (not active).
For Cc1ccc2[nH]c(-c3cccc(N)c3)cc2c1, the AC50 [11] was 13.2 µM (active), the CC50 [5] was > 50 µM (active) and the IC50 (cells) was 41.4 µM (active).
In the case of O=c1c(O)c(-c2cccc(O)c2)oc2ccccc12, the AC50 (Cytochrome P450 2D6) is reported as 25.1 µM (inconclusive).
For Cc1nc2ccccn2c(=O)c1CCN1CCC(C(=O)c2ccc(F)cc2)CC1 [PIRENPERONE], the AC50 (Cytochrome P450 2D6) was 7.94 µM (inconclusive) and the AC50 (Cytochrome P450 3A4) was 20 µM (inconclusive).
